Patent publication US9034854B2, “Pharmaceutical composition comprising estetrol derivatives for use in cancer therapy” (priority 2002, dated 2015)

Columns and labels:
[1] = test system: AP-1 site in the presence of ERβ; details: cited from earlier work
[2] = test system: AP-1 site in the presence of ERα; details: cited from earlier work
[3] = test system: pre-existing DMBA-induced mammary tumours; assay: DMBA-induced tumour model in rats, therapeutic design, pre-existing tumours (Example 5); assay type: in vivo, rat
Procedure: As set forth in example 3, female Sprague-Dawley rats were given 16 mg DMBA at the age of 50 days. Mammary tumour development was allowed to proceed until week 8 after DMBA treatment. Animals were subsequently allocated to one of six groups, receiving 4 weeks daily oral treatment with placebo, tamoxifen or estetrol as follows: • Group 1 animals received placebo treatment with a single daily dose of 3.0 ml/kg vehicle (20% wt/vol solution of hydroxypropyl-beta-cyclodextrin in water); • Group 2 animals were surgically castrated and received placebo treatment with 3.0 ml/kg/day vehicle; • Group 3 animals received tamoxifen at a dose of 1 mg/kg; • Group 4 animals received estetrol at a dose of 1.0 mg/kg; • Group 5 animals received estetrol at a dose of 3.0 mg/kg; • Group 6 animals received estetrol at a dose of 10.0 mg/kg. […] During therapy, the progression or disappearance of palpable mammary tumours and the size of the tumours were determined weekly. At necropsy, tumours were counted, measured and the change from baseline at the start of treatment was calculated.

[4] = test system: DMBA-induced mammary tumours; assay: Second DMBA trial in rats, dose-response prevention study (Example 4); assay type: in vivo, rat; details: 8 weeks
From the text: Estetrol and tamoxifen were subsequently tested in a second DMBA trial in rats to evaluate the dose-response relationships in preventing rats from developing mammary tumours. The experimental procedure as set forth in example 3 was used as a prevention study to treat the animals (12 animals per group) for 8 consecutive weeks after tumour induction with oral dosages of either estetrol or tamoxifen. DMBA-exposed rats were randomly assigned to treatment groups, receiving oral treatment as follows: • Group 1 animals received placebo oral treatment in the form of a single daily dose of 3.0 ml/kg vehicle (20% wt/vol solution of hydroxypropyl-beta-cyclodextrin in water); • Group 2 animals received tamoxifen orally at a single daily dose of 1 mg/kg; • Group 3 animals received tamoxifen orally at a single daily dose of 2 mg/kg; • Group 4 animals received tamoxifen orally at a single daily dose of 3 mg/kg; • Group 5 animals received estetrol orally at a single daily dose of 0.5 mg/kg; • Group 6 animals received estetrol orally at a single daily dose of 1.0 mg/kg; • Group 7 animals received estetrol orally at a single daily dose of 1.5 mg/kg; • Group 8 animals received estetrol orally at a single daily dose of 2.0 mg/kg; • Group 9 animals received estetrol orally at a single daily dose of 2.5 mg/kg; and • Group 10 animals received estetrol orally at a single daily dose of 3.0 mg/kg
During the treatment period of 8 weeks, the emergence of palpable tumours and number of tumours were determined weekly. The number of mammary tumours at necropsy is depicted in FIG. 2.

[5] = test system: DMBA-induced mammary tumours; assay: DMBA-induced tumour model in rats, prevention (Example 3); assay type: in vivo, rat; details: 8 weeks
[6] = test system: cultured endothelial cells of human umbilical cord veins; details: cited from earlier work
human ERβ = human ERβ (Homo sapiens (Human), UniProt Q92731); assay: Competitive steroid binding assay, ERβ
[7] = Single rising oral dose study in healthy postmenopausal volunteers; assay type: in vivo, human
Procedure: To determine the bioavailability and elimination half-life of estetrol after oral dosing in humans a single rising dosing study was performed in healthy postmenopausal volunteers. Volunteers (n=6) were randomly assigned to 0.1, 1 or 10 mg estetrol and blood samples (18 per volunteer) were obtained over a period of 72 hours. After thawing the plasma samples, liquid-liquid extraction (hexane and diethyl ether) was employed to prepare the estetrol-containing plasma samples for HPLC analysis (Perkin is Elmer 200) and tandem mass spectrometry using a PE Sciex 4000 tandem mass spectrometer and APCI interface. With each sample batch, a calibration curve with 6 calibrators was recorded.

[8] = Previous studies: agonistic models of bone resorption, hot flushing and vaginal cornification; assay type: in vivo; details: vaginal cornification
From the text: Eighty-four female Sprague-Dawley rats (Harlan, The Netherlands) were group housed, maintained in a 12-hr light/dark environment, and fed a Soya Free Diet (SDS England) and water ad libitum. Animals were weighed on a weekly basis.

human ERα = human ERα (Homo sapiens (Human), UniProt P03372); assay: Competitive steroid binding assay, ERα
human ERα, sequence (P03372 whole entry): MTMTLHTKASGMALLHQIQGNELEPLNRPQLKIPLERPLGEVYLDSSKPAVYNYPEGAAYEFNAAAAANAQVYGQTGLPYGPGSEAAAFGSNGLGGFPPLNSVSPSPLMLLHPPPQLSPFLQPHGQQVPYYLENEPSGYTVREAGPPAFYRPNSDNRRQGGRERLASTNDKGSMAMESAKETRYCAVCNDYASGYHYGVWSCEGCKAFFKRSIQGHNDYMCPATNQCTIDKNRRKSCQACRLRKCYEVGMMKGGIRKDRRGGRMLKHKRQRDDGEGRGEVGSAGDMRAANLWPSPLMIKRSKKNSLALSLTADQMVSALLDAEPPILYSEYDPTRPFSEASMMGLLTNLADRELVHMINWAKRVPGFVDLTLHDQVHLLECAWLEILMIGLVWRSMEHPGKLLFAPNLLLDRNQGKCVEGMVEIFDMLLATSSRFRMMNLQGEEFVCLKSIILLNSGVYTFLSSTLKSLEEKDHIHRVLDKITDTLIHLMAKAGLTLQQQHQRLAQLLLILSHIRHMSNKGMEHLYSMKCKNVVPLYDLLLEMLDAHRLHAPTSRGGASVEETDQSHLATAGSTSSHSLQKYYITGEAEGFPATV

human ERβ, sequence (Q92731 whole entry): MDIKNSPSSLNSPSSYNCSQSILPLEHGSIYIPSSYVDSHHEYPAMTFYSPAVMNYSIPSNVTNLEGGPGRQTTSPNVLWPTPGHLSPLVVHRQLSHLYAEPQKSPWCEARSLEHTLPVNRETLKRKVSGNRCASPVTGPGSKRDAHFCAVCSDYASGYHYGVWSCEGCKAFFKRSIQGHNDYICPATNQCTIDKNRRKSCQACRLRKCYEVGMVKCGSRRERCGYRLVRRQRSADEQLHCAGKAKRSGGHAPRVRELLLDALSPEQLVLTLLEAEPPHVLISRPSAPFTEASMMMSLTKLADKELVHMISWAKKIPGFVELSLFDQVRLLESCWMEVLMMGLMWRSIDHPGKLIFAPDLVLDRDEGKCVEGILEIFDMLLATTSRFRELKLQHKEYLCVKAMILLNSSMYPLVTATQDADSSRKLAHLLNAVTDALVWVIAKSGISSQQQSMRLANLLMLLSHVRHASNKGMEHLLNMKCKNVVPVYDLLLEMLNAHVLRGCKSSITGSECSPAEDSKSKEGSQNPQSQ

In the case of `C[C@]12CC[C@@H]3c4ccc(O)cc4CC[C@H]3[C@@H]1CC[C@@H]2O` [E2, 17β-estradiol], the “Effect on AP-1 site” value [1] is given as “inhibits” and the “Effect on AP-1 site” value [2] is given as “activates”.
With `CC/C(=C(\c1ccccc1)c1ccc(OCCN(C)C)cc1)c1ccccc1` [tamoxifen, reference compound] the “Tumour size, percentage change from baseline, net group effect” value ([3]; tamoxifen 1 mg/kg/day orally 4 weeks) was “increase in tumour size as net group effect”, the “Efficacy against further development and progression of mammary tumours” value ([3]; tamoxifen 1 mg/kg/day orally 4 weeks, started 8 weeks after DMBA) was “ineffective” and the “Tumour number at necropsy” value ([3]; tamoxifen 1 mg/kg/day orally 4 weeks, n=8, 15 at start of treatment) was 19. The Palpable tumours developed ([4]; tamoxifen 1, 2 and 3 mg/kg/day orally) was “In none of the tamoxifen groups (1, 2, and 3 mg/kg/day) palpable tumours developed”, the “Effect on AP-1 site” value [1] was “stimulate” and the “Development of mammary tumours” value ([5]; tamoxifen 3 mg/kg/day orally) was “inhibiting the development of mammary tumours”. The “Effect on AP-1 site” value [2] was “inhibit”.
In the case of `O=C(c1ccc(OCCN2CCCCC2)cc1)c1c(-c2ccc(O)cc2)sc2cc(O)ccc12` [raloxifene], the “Effect on AP-1 site” value [1] is listed as “stimulate” and the “Effect on AP-1 site” value [2] is listed as “inhibit”.
For `C[C@]12CC[C@@H]3c4ccc(O)cc4CC[C@H]3[C@@H]1[C@@H](O)[C@@H](O)[C@@H]2O` [E4, 1,3,5 (10)-estratrien-3,15α,16α,17β-tetrol], the “Effect on proliferation of vascular endothelial cells” value [6] is listed as “No significant effect”, the “Tumour number at necropsy” value ([3]; estetrol 1 mg/kg/day orally 4 weeks, n=9, 16 at start of treatment) is listed as 23 and the “Tumour number at necropsy” value ([3]; estetrol 3 mg/kg/day orally 4 weeks, n=9, 16 at start of treatment) is listed as 15. The “Tumour number at necropsy” value ([3]; estetrol 10 mg/kg/day orally 4 weeks, n=10, 18 at start of treatment) was 7, the “Tumour size, percentage change from baseline, net group effect” value ([3]; estetrol 1, 3, 10 mg/kg/day orally 4 weeks) was “dose dependent pronounced tumour size reduction” and the “Efficacy, net disappearance of mammary tumours” value ([3]; estetrol orally 4 weeks, started 8 weeks after DMBA) was “comparable to ovariectomy”. The Ki (human ERβ) was 19 nM, the Mammary tumour formation ([4]; estetrol 0.5-3.0 mg/kg/day orally) was “dose-dependent inhibition of mammary tumour formation” and the “Protection from developing tumours” value ([4]; estetrol 2.5 and 3.0 mg/kg/day orally) was “completely protected rats from developing tumours”. For the same compound, the half-life ([7]; female, human, plasma, po, oral dosing, human postmenopausal subjects, read-out: Elimination half-life) was greater than 20 h, the “AUC values, dose-linearity” value ([7]; oral 0.1, 1, 10 mg, plasma) was “good dose-linearity” and the Tolerability ([7]; oral dose increased from 0.1 to 1 and 10 mg, postmenopausal volunteers) was “Good tolerability”. For the same compound, the Oral absorption ([7]; over the entire dose range 0.1-10 mg oral) was “well absorbed”, the “Efficacy in preventing growth of DMBA-induced tumours relative to tamoxifen” value ([5]; E4 […] vs tamoxifen 3 mg/kg/day orally) was “as effective as tamoxifen” and the “In vivo estrogenicity, relative potency” value ([8]; 0.125 mg/kg/day EE vs […] E4, hot flushing) was “equipotency”. The “In vivo estrogenicity, relative potency” value ([8]; […] EE vs 0.5 mg/kg/day E4, hot flushing) was “equipotency”, the Ki (human ERα) was 4.9 nM and the “Relative ERα/ERβ preference” value (human ERα; preference for binding to ERα protein versus ERβ protein) was 400%.
In the case of `C[C@]12CC[C@@H]3c4ccc(O)cc4C[C@@H](CCCCCCCCC[S+]([O-])CCCC(F)(F)C(F)(F)F)[C@H]3[C@@H]1CC[C@@H]2O` (stereo partly shown) [ICI-182,780], the “Effect on AP-1 site” value [1] is given as “stimulate” and the “Effect on AP-1 site” value [2] is given as “inhibit”.
